Test results: paper PMC9257893 (The Onderstepoort Journal of Veterinary Research, 2022)
Several values for one entry are separate records, joined by “and”; a condition that tells them apart may be missing. Equal values may be shown once. Read-outs that look alike come from different tables or passages of the source.

Legend:
[1] = Gyps vultures; cited from earlier work
[2] = pigeon; cited from earlier work
[3] = design: method as in Naidoo et al. [2007]; settings: Cape Griffon Vulture; ref Naidoo et al. [2007]; cited from earlier work
[4] = design: method as in Naidoo et al. [2007]; settings: African White-backed Vulture; ref Naidoo et al. [2007]; cited from earlier work
[5] = Diclofenac plasma pharmacokinetics in chickens after IV dosing (HPLC, non-compartmental); settings: for AUC(0-inf): AUCinf; for AUC(0-t): AUClast
Experimental: Birds still alive after 15 days were terminated by sedation and carbon dioxide asphyxiation.
Scheduled and unscheduled deaths were submitted to the University of Pretoria Paraclinical Department, section of veterinary pathology, for full gross and histological evaluation. Where needed, samples were collected in 10% buffered formalin, sectioned and stained via haematoxylin & eosin (H&E) technique and subjected to histopathologic examination.
Samples were analysed at the University of Pretoria, Veterinary, Paraclinical Department, toxicology and pharmacology laboratory. […] In short, 200 μL of plasma was placed in a 2-mL tube, followed sequentially by 400 μL of diethyl ether and 400 μL of potassium dihydrogen phosphate (0.3 M and pH 3.5). […] The separated organic phase was dried under nitrogen flow at 50 °C until dry.
For analysis, 30 μL was injected at […], and detection at 275 nm.
Concentration-time data generated following HPLC analysis was dose equalised to 1 mg/kg and evaluated by non-compartmental modelling (Kinetica 5.1, Thermo Scientific). The pharmacokinetic parameters maximum plasma concentration (Cmax) and time to maximum plasma concentration (Tmax) were read off the curve.
Area under the plasma curve extrapolated to infinity was calculated as: • AUCinf=AUClast+AUCextra, [Eqn 3] where AUCextra=Clast/β,Clast
is the last measured concentration and β is the terminal elimination portion of the curve gradient, on a natural logarithmic scale.
The half-life of elimination (T1/2) was calculated as: • T1/2=Ln 2/β. [Eqn 4]
Whole plasma clearance (Cl) was calculated as: • Cl=Dose/AUClast. [Eqn 5]
Volume of distribution (Vd) was calculated as: • Vd=Dose/CP0, [Eqn 6] where CP0 was the calculated concentration at time 0.
The mean residence time (MRT) was calculated as: • MRT=Dose Cp0/β. [Eqn 7]

[6] = in vivo, iv, 1 mg/kg, control group (diclofenac IV alone), birds alive, GM, dose corrected to 1 mg/kg
[7] = in vivo, iv, 1 mg/kg, control group (diclofenac IV alone), birds dead, GM, dose corrected to 1 mg/kg
[8] = in vivo, iv, test group (fluconazole + diclofenac IV), birds alive, GM, dose corrected to 1 mg/kg
[9] = test group (fluconazole + diclofenac IV), birds alive, GM, dose corrected to 1 mg/kg
[10] = test group (fluconazole + diclofenac IV), birds dead, GM, dose corrected to 1 mg/kg

O=C(O)Cc1ccccc1Nc1c(Cl)cccc1Cl [diclofenac, diclofenac sodium]
T1/2 [1]: > 7 h | T1/2 [2]: < 7 h | MRT [3]: 15.11 h | T1/2 [3]: 12.24 h | MRT [4]: 26.10 h | T1/2 [4]: 16.78 h | Cmax ([5]; chicken (Gallus gallus domesticus), in vivo, iv, mean Cmax, mean value stated in text, chickens, IV diclofenac): 510 ng/mL | Tmax ([5]; chicken (Gallus gallus domesticus), in vivo, iv, mean Tmax, mean value stated in text, chickens, IV diclofenac): 0.38 h | Lz (terminal elimination phase rate constant) ([5]; control group (diclofenac IV alone), birds alive, GM): 0.88 h⁻¹ | AUMClast ([5]; control group (diclofenac IV alone), birds alive, GM, dose corrected to 1 mg/kg): 0.35 μg/mL*(h)^2 | Lz (terminal elimination phase rate constant) ([5]; control group (diclofenac IV alone), birds dead, GM): 0.34 h⁻¹ | AUMClast ([5]; control group (diclofenac IV alone), birds dead, GM, dose corrected to 1 mg/kg): 0.27 μg/mL*(h)^2 | T1/2 of individual birds ([5]; control group birds receiving the two highest doses): 7.01 h and 2.75 h | AUC(0-inf) [5, 6]: 570 ng·h/mL | AUC(0-inf) [5, 7]: 760 ng·h/mL | AUC(0-t) [5, 6]: 460 ng·h/mL | AUC(0-t) [5, 7]: 310 ng·h/mL | Cmax ([5]; in vivo, iv, 1 mg/kg, Cmax, control group (diclofenac IV alone), birds alive, GM, dose corrected to 1 mg/kg): 520 ng/mL | Cmax ([5]; in vivo, iv, 1 mg/kg, Cmax, control group (diclofenac IV alone), birds dead, GM, dose corrected to 1 mg/kg): 240 ng/mL | AUC(0-inf) [5, 8]: 550 ng·h/mL | AUC(0-inf) ([5]; in vivo, iv, test group (fluconazole + diclofenac IV), birds dead, GM, dose corrected to 1 mg/kg): 1130 ng·h/mL | AUC(0-t) ([5]; in vivo, iv, geometric mean, control group, all birds): 400 ng·h/mL | AUC(0-t) ([5]; in vivo, iv, geometric mean, test group (CYP inhibitor), all birds): 500 ng·h/mL | AUC(0-t) [5, 8]: 420 ng·h/mL | clearance ([5]; in vivo, iv, Cl, control group (diclofenac IV alone), birds alive, GM): 29 mL/min/kg | clearance ([5]; in vivo, iv, Cl, control group (diclofenac IV alone), birds dead, GM): 22 mL/min/kg | clearance ([5]; in vivo, iv, Cl, test group (fluconazole + diclofenac IV), birds alive, GM): 30.5 mL/min/kg | clearance ([5]; in vivo, iv, Cl, test group (fluconazole + diclofenac IV), birds dead, GM): 14.7 mL/min/kg | Cmax ([5]; in vivo, iv, Cmax, geometric mean, control group, all birds): 410 ng/mL | Cmax ([5]; in vivo, iv, Cmax, geometric mean, test group (CYP inhibitor), all birds): 610 ng/mL | Cmax ([5]; in vivo, iv, Cmax, test group (fluconazole + diclofenac IV), birds dead, GM, dose corrected to 1 mg/kg): 1240 ng/mL | MRT ([5]; in vivo, iv, control group (diclofenac IV alone), birds alive, GM): 1.17 h | MRT ([5]; in vivo, iv, control group (diclofenac IV alone), birds dead, GM): 3.14 h | MRT ([5]; in vivo, iv, test group (fluconazole + diclofenac IV), birds alive, GM): 1.34 h | MRT ([5]; in vivo, iv, test group (fluconazole + diclofenac IV), birds dead, GM): 1.33 h | half-life ([5]; in vivo, iv, T1/2, control group (diclofenac IV alone), birds alive, GM): 0.79 h | half-life ([5]; in vivo, iv, T1/2, test group (fluconazole + diclofenac IV), birds alive, GM): 0.85 h | half-life ([5]; in vivo, iv, T1/2, test group (fluconazole + diclofenac IV), birds dead, GM): 0.96 h | Tmax ([5]; in vivo, iv, Tmax, control group (diclofenac IV alone), birds alive, GM): 0.4 h | Tmax ([5]; in vivo, iv, Tmax, control group (diclofenac IV alone), birds dead, GM): 0.4 h | Tmax ([5]; in vivo, iv, Tmax, test group (fluconazole + diclofenac IV), birds alive, GM): 0.35 h | Tmax ([5]; in vivo, iv, Tmax, test group (fluconazole + diclofenac IV), birds dead, GM): 0.25 h | Vd ([5]; in vivo, iv, Vss, control group (diclofenac IV alone), birds alive, GM): 2.04 L/kg | Vd ([5]; in vivo, iv, Vss, control group (diclofenac IV alone), birds dead, GM): 4.16 L/kg | Vd ([5]; in vivo, iv, Vss, test group (fluconazole + diclofenac IV), birds alive, GM): 2.44 L/kg | Vd ([5]; in vivo, iv, Vss, test group (fluconazole + diclofenac IV), birds dead, GM): 1.17 L/kg | Vd ([5]; in vivo, iv, Vz, control group (diclofenac IV alone), birds alive, GM): 1.98 L/kg | Vd ([5]; in vivo, iv, Vz, control group (diclofenac IV alone), birds dead, GM): 3.88 L/kg | Vd ([5]; in vivo, iv, Vz, test group (fluconazole + diclofenac IV), birds alive, GM): 2.24 L/kg | Vd ([5]; in vivo, iv, Vz, test group (fluconazole + diclofenac IV), birds dead, GM): 1.23 L/kg | clearance ([5]; in vivo, iv, clearance, geometric mean, control group, all birds): 26.5 mL/min/kg | clearance ([5]; in vivo, iv, clearance, geometric mean, test group (CYP inhibitor), all birds): 25.3 mL/min/kg | Lz (terminal elimination phase rate constant) ([5]; test group (fluconazole + diclofenac IV), birds alive, GM): 0.82 h⁻¹ | AUMClast [5, 9]: 0.34 μg/mL*(h)^2 | Cmax [5, 9]: 480 ng/mL | Lz (terminal elimination phase rate constant) ([5]; test group (fluconazole + diclofenac IV), birds dead, GM): 0.72 h⁻¹ | AUClast [5, 10]: 870 ng·h/mL | AUMClast [5, 10]: 0.63 μg/mL*(h)^2
